{
  "source": "patent US4221724A",
  "about": "“Antibiotic X-14766A” (Hoffmann-La Roche Inc., priority 1978, dated 1980)",
  "key": {"[1]": {"test_system": "rumen fluid (in vitro rumen fermentations)", "design": "species or system bovine", "conditions": "for Percent Production of Control Fermantations: Rate of Gas Production / Percent Production of Control Fermantations: Total VFA(%): rumen fluid, 240 min"}, "toxicity (LD50) in mice": {"test": "toxicity (LD50) in mice", "conditions": "mouse, in vivo"}, "[2]": {"test_system": "Staphylococcus aureus ATCC 6538P", "test": "antibacterial activity, Minimum Inhibitory Concentration (Table 4)", "format": "cell-based", "conditions": "ATCC6538P"}, "Sarcina lutea ATCC 9341": {"test_system": "Sarcina lutea ATCC 9341", "test": "antibacterial activity, Minimum Inhibitory Concentration (Table 4)", "format": "cell-based", "conditions": "Micrococcus luteus, ATCC9341"}, "[3]": {"test_system": "Bacillus sp. E ATCC 27859", "test": "antibacterial activity, Minimum Inhibitory Concentration (Table 4)", "format": "cell-based", "conditions": "ATCC27859"}, "[4]": {"test_system": "Bacillus subtilis Nrrl 558", "test": "antibacterial activity, Minimum Inhibitory Concentration (Table 4)", "format": "cell-based", "conditions": "NRRL558"}, "[5]": {"test_system": "Bacillus megaterium ATCC 8011", "test": "antibacterial activity, Minimum Inhibitory Concentration (Table 4)", "format": "cell-based", "conditions": "Priestia megaterium, ATCC8011"}, "[6]": {"test_system": "Bacillus sp. TA ATCC 27860", "test": "antibacterial activity, Minimum Inhibitory Concentration (Table 4)", "format": "cell-based", "conditions": "ATCC27860"}, "[7]": {"test_system": "Mycobacterium phlei ATCC 355", "test": "antibacterial activity, Minimum Inhibitory Concentration (Table 4)", "format": "cell-based", "conditions": "Mycolicibacterium phlei, ATCC355"}, "[8]": {"test_system": "Streptomyces cellulosae ATCC 3313", "test": "antibacterial activity, Minimum Inhibitory Concentration (Table 4)", "format": "cell-based", "conditions": "ATCC3313"}, "Plasmodium bergei": {"test_system": "Plasmodium bergei", "test": "antimalarial activity against Plasmodium bergei in mice", "format": "in vivo"}, "[9]": {"test_system": "Bacteroides fragilis ATCC 12290", "test": "in vitro activity against anaerobic bacteria, two-fold serial broth dilution (Table 5)", "format": "cell-based", "conditions": "ATCC12290, trypticase soy broth, 37° C. overnight, read-out: Minimum Inhibitory Concentration"}, "[10]": {"test_system": "Clostridium histolyticum 503-86", "test": "in vitro activity against anaerobic bacteria, two-fold serial broth dilution (Table 5)", "format": "cell-based", "conditions": "Hathewaya histolytica, 50386, trypticase soy broth, 37° C. overnight, read-out: Minimum Inhibitory Concentration", "description": "(§1) *Two-fold serial broth dilution tests were carried out using trypticase\n(§2) soy broth (TSB, BBL) as the test medium. All tests were incubated at\n(§3) 37° C. overnight under anaerobic conditions."}, "[11]": {"test_system": "Clostridium septicum 503-34", "test": "in vitro activity against anaerobic bacteria, two-fold serial broth dilution (Table 5)", "format": "cell-based", "conditions": "50334, trypticase soy broth, 37° C. overnight, read-out: Minimum Inhibitory Concentration", "description": "as §1, §2, §3"}, "[12]": {"test_system": "Treponema hyodysenteriae strain B140", "test": "activity against Treponema hyodysenteriae, blood agar plate dilution MIC", "format": "cell-based", "conditions": "48 hours, 42° C., anaerobic, in µg/mL", "excerpt": "(§4) Testing for activity against Treponema hyodysenteriae, a cause of swine dysentery consisted of inoculation of blood agar plates containing a series of two and fourfold dilutions of antibiotic X-14766A and ipronidazole, an agent used in the treatment of swine dysentery, with tenfold dilutions of each of the T. hyodysenteriae strains (H 78, H 140, H 179)."}, "[13]": {"test_system": "Treponema hyodysenteriae strain B179", "test": "activity against Treponema hyodysenteriae, blood agar plate dilution MIC", "format": "cell-based", "conditions": "Steers inoculation, 48 hours, 42° C., anaerobic, in µg/mL", "excerpt": "as §4"}, "[14]": {"test_system": "Treponema hyodysenteriae strain B78", "test": "activity against Treponema hyodysenteriae, blood agar plate dilution MIC", "format": "cell-based", "conditions": "48 hours, 42° C., anaerobic, in µg/mL", "excerpt": "as §4"}},
  "note": "Values joined by “and” are separate entries in the source; they are usually repeats but may differ in a detail not shown here. Equal values may be shown once.",
  "data": [
    {"smiles": "CC[C@@H](C(=O)O)[C@@H]1O[C@@H]([C@@H](C)[C@H](O)[C@H](C)C(=O)[C@H](CC)[C@H]2O[C@]3(C=C[C@@H](O)[C@]4(CC[C@@](C)([C@H]5CC[C@](O)(CC)[C@H](C)O5)O4)O3)[C@H](C)C[C@@H]2C)[C@@H](C)C[C@@H]1C", "note": "[Narasin]", "values": [
      {"measurement": "C3 /C2 + nC4", "setting": "[1]", "value": "00.583 and 0.581"},
      {"measurement": "Percent Production of Control Fermantations: Rate of Gas Production", "setting": "[1]", "value": "86% and 88%"}
    ]},
    {"smiles": "CCOC(=O)C1OC(C2(C)OC3(OC4(C=CC3O)OC(C(C)C(=O)C(C)C(O)C(C)CC(C)c3c(Cl)cc(C)c(O)c3C(=O)O)C(C)CC4C)C(C)C2OC)CC1O", "note": "(centres unmarked) [Antibiotic X-14766A]", "values": [
      {"measurement": "LD50", "setting": "toxicity (LD50) in mice; ip", "value": 5.75, "unit": "mg/kg"},
      {"measurement": "LD50", "setting": "toxicity (LD50) in mice; po", "value": 350, "unit": "mg/kg"},
      {"measurement": "MIC", "setting": "[2]", "value": 0.2, "unit": "µg/mL"},
      {"measurement": "MIC", "setting": "Sarcina lutea ATCC 9341", "value": 0.2, "unit": "µg/mL"},
      {"measurement": "MIC", "setting": "[3]", "value": 0.04, "unit": "µg/mL"},
      {"measurement": "MIC", "setting": "[4]", "value": 0.2, "unit": "µg/mL"},
      {"measurement": "MIC", "setting": "[5]", "value": 0.08, "unit": "µg/mL"},
      {"measurement": "MIC", "setting": "[6]", "value": 0.08, "unit": "µg/mL"},
      {"measurement": "MIC", "setting": "[7]", "value": 0.2, "unit": "µg/mL"},
      {"measurement": "MIC", "setting": "[8]", "value": 0.2, "unit": "µg/mL"},
      {"measurement": "ED50", "setting": "Plasmodium bergei", "value": 2.5, "unit": "mg/kg"},
      {"measurement": "MIC", "setting": "[9]", "value": 0.195, "unit": "µg/mL"},
      {"measurement": "MIC", "setting": "[10]", "value": 0.0098, "unit": "µg/mL"},
      {"measurement": "MIC", "setting": "[11]", "value": 0.0098, "unit": "µg/mL"},
      {"measurement": "MIC", "setting": "[12]; Steers inoculation", "value": "< 0.04 and 0.04"},
      {"measurement": "MIC", "setting": "[12]; Syringe inoculation", "value": "0.02 and 0.04"},
      {"measurement": "MIC", "setting": "[13]", "value": "< 0.04 and 0.02"},
      {"measurement": "MIC", "setting": "[14]; Steers inoculation", "value": "< 0.04 and 0.02"},
      {"measurement": "MIC", "setting": "[14]; Syringe inoculation", "value": "0.02 and 0.04"},
      {"measurement": "C3 /C2 + nC4", "setting": "[1]", "value": "0.501 and 0.488"},
      {"measurement": "Percent Production of Control Fermantations: Rate of Gas Production", "setting": "[1]", "value": "90% and 89%"},
      {"measurement": "Percent Production of Control Fermantations: Total VFA(%)", "setting": "[1]", "value": "150.1% and 138.7%"}
    ]},
    {"smiles": "CC[C@@]1([C@@H]2O[C@@H]([C@H]3O[C@@](O)(CO)[C@H](C)C[C@@H]3C)C[C@@H]2C)CC[C@H]([C@]2(C)CC[C@]3(C[C@H](O)[C@@H](C)[C@@H]([C@@H](C)[C@@H](OC)[C@H](C)C(=O)O)O3)O2)O1", "note": "[Monensin]", "values": [
      {"measurement": "C3 /C2 + nC4", "setting": "[1]", "value": "0.565 and 0.575"},
      {"measurement": "Percent Production of Control Fermantations: Rate of Gas Production", "setting": "[1]", "value": "89% and 85%"},
      {"measurement": "Percent Production of Control Fermantations: Total VFA(%)", "setting": "[1]", "value": "105.3% and 110.7%"}
    ]},
    {"smiles": "CCC(C(=O)O)C1CCC(C)C(C(C)C(O)C(C)C(=O)C(CC)C2OC3(C=CC(O)C4(CCC(C)(C5CCC(O)(CC)C(C)O5)O4)O3)C(C)CC2C)O1", "note": "(centres unmarked) [Salino]", "values": [
      {"measurement": "C3 /C2 + nC4", "setting": "[1]", "value": "0.497 and 0.512"},
      {"measurement": "Percent Production of Control Fermantations: Rate of Gas Production", "setting": "[1]", "value": "83% and 90%"},
      {"measurement": "Percent Production of Control Fermantations: Total VFA(%)", "setting": "[1]", "value": "146.9% and 145.5%"}
    ]},
    {"smiles": "CC(C)c1ncc([N+](=O)[O-])n1C", "note": "[Ipronidazole, ipronidazole, reference compound]", "values": [
      {"measurement": "MIC", "setting": "[12]; Steers inoculation", "value": "0.16 and 0.31"},
      {"measurement": "MIC", "setting": "[12]; Syringe inoculation", "value": 0.63},
      {"measurement": "MIC", "setting": "[13]", "value": "0.16 and 0.31"},
      {"measurement": "MIC", "setting": "[14]; Steers inoculation", "value": "0.16 and 0.31"},
      {"measurement": "MIC", "setting": "[14]; Syringe inoculation", "value": 0.63}
    ]}
  ]
}
